Test results: patent US20230085307A1, “PYRIDAZINONE COMPOUND AND HERBICIDE” (NISSAN CHEMICAL CORPORATION, priority 2019, published 2023)

Columns and labels:
[1] = system: wild oat; test: Test Example 5: herbicidal effect by foliage application, plastic box (Table 20, symbol I); format: in vivo, wild oat (Avena fatua); details: 320 g/ha; for herbicidal effect on I: wild oat (evaluation grade 0-5): foliage application after 14-day growth, evaluated three weeks after application; for I (wild oat) herbicidal effect grade: evaluated 3 weeks after application
Method in brief: (§1)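 Foliar spray test: emulsion formulation diluted in water to a set application rate, sprayed onto 14-day-old plants raised in diluvial soil at 25° C to 30° C under glass. Both herbicidal effect and crop effect rated visually three weeks later.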

[2] = system: rice flat sedge; test: Test Example 3: herbicidal effect by foliage application, Wagner pot (Table 18, symbol E); format: in vivo, rice flat sedge (Cyperus iria); details: for herbicidal effect on rice flat sedge (E): 320 g/ha; for Herbicidal effect on E (rice flat sedge), foliage application: amount of applied herbicide 320 g/ha
Method in brief: (§2)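 Plants were sown in alluvial soil held under 0.1–0.5 cm standing water and grown 14 days in a greenhouse at 25–30 °C. An emulsifiable formulation, water-diluted to the set dose, was then sprayed onto the foliage, and effects were scored three weeks later using previously defined criteria.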

[3] = system: green foxtail; test: Test Example 4: herbicidal effect by soil treatment (Table 19, symbol G); format: in vivo, green foxtail (Setaria viridis); details: amount of applied herbicide 320 g/ha
Method in brief: (§3)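 Step 1: sow seeds in sterilized diluvial soil, cover ~1.5 cm. Step 2: spray diluted emulsion onto soil surface at predetermined rate. Step 3: greenhouse, 25–30° C, three weeks. Step 4: grade effect on each plant by earlier criteria.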

[4] = system: oval-leafed pondweed; test: Test Example 1: herbicidal activity, application before weed generation under submerged conditions (Table 16, symbol C); format: in vivo, oval-leafed pondweed (Monochoria vaginalis); details: amount of applied herbicide 320 g/ha
Method in brief: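 Alluvial soil was flooded to 4 cm depth, weed seeds were sown mixed and 2.5-leaf rice seedlings were transplanted. On sowing day, the compound's emulsion, diluted in water to a set dose, was applied to the water surface. Plants grew at 25–30 °C and were scored 0–5 after three weeks.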

[5] = system: barnyard grass; test: Test Example 5: herbicidal effect by foliage application, plastic box (Table 20, symbol H); format: in vivo, barnyard grass (Echinochloa crus-galli); details: 320 g/ha; for herbicidal effect on H: barnyard grass (evaluation grade 0-5): foliage application after 14-day growth, evaluated three weeks after application; for H (barnyard grass) herbicidal effect grade: evaluated 3 weeks after application
Method in brief: as §1

[6] = system: blackgrass; test: Test Example 5: herbicidal effect by foliage application, plastic box (Table 20, symbol J); format: in vivo, blackgrass (Alopecurus myosuroides); details: 320 g/ha; for J (blackgrass) herbicidal effect grade: evaluated 3 weeks after application
Method in brief: as §1

[7] = system: Chinese sprangletop; test: Test Example 3: herbicidal effect by foliage application, Wagner pot (Table 18, symbol D); format: in vivo, chinese sprangletop (Leptochloa chinensis); details: for herbicidal effect on Chinese sprangletop (D): 320 g/ha; for Herbicidal effect on D (Chinese sprangletop), foliage application: amount of applied herbicide 320 g/ha
Method in brief: as §2

[8] = system: redroot pigweed; test: Test Example 4: herbicidal effect by soil treatment (Table 19, symbol N); format: in vivo, redroot pigweed (Amaranthus retroflexus); details: amount of applied herbicide 320 g/ha
Method in brief: as §3

[9] = system: southern crabgrass; test: Test Example 4: herbicidal effect by soil treatment (Table 19, symbol F); format: in vivo, southern crabgrass (Digitaria ciliaris); details: amount of applied herbicide 320 g/ha
Method in brief: as §3

[10] = system: velvetleaf; test: Test Example 5: herbicidal effect by foliage application, plastic box (Table 20, symbol M); format: in vivo, velvetleaf (Abutilon theophrasti); details: 320 g/ha; for herbicidal effect on M: velvetleaf (evaluation grade 0-5): foliage application after 14-day growth, evaluated three weeks after application; for M (velvetleaf) herbicidal effect grade: evaluated 3 weeks after application
Method in brief: as §1

[11] = system: southern crabgrass; test: Test Example 5: herbicidal effect by foliage application, plastic box (Table 20, symbol F); format: in vivo, southern crabgrass (Digitaria ciliaris); details: 320 g/ha; for herbicidal effect on F: southern crabgrass (evaluation grade 0-5): foliage application after 14-day growth, evaluated three weeks after application; for F (southern crabgrass) herbicidal effect grade: evaluated 3 weeks after application
Method in brief: as §1

[12] = system: lambsquarters; test: Test Example 5: herbicidal effect by foliage application, plastic box (Table 20, symbol O); format: in vivo, lambsquarters (Chenopodium album); details: 320 g/ha; for herbicidal effect on O: lambsquarters (evaluation grade 0-5): foliage application after 14-day growth, evaluated three weeks after application; for O (lambsquarters) herbicidal effect grade: evaluated 3 weeks after application
Method in brief: as §1

[13] = system: wild oat; test: Test Example 4: herbicidal effect by soil treatment (Table 19, symbol I); format: in vivo, wild oat (Avena fatua); details: amount of applied herbicide 320 g/ha
Method in brief: as §3

[14] = system: Italian ryegrass; test: Test Example 5: herbicidal effect by foliage application, plastic box (Table 20, symbol K); format: in vivo, Italian ryegrass (Lolium multiflorum); details: 320 g/ha; for herbicidal effect on K: Italian ryegrass (evaluation grade 0-5): foliage application after 14-day growth, evaluated three weeks after application; for K (Italian ryegrass) herbicidal effect grade: evaluated 3 weeks after application
Method in brief: as §1

[15] = system: Japanese bulrush; test: Test Example 2: herbicidal activity, application during weed generation under submerged conditions (Table 17, symbol B); format: in vivo, Japanese bulrush (Schoenoplectus juncoides); details: for herbicidal effect rating, B: Japanese bulrush: AAH 320 g/ha, application during weed generation, submerged conditions; for herbicidal effect grade, B: Japanese bulrush: application during weed generation under submerged conditions, amount of applied herbicide 320 g/ha
Method in brief: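 Effect on each weed is rated three weeks post-treatment, using the same scoring criteria as the preceding test. Plants grow from mixed-sown seed in flooded alluvial soil (4 cm water) at 25° C. to 30° C., and are treated at one to two leaves with diluted emulsion dropped onto the water.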

[16] = system: blackgrass; test: Test Example 4: herbicidal effect by soil treatment (Table 19, symbol J); format: in vivo, blackgrass (Alopecurus myosuroides); details: amount of applied herbicide 320 g/ha
Method in brief: as §3

[17] = foliage application, three weeks after application

SMILES	herbicidal effect on I: wild oat (evaluation grade 0-5) [1]	herbicidal effect on rice flat sedge (E) [2]	Herbicidal effect by soil treatment, G: green foxtail [3]	Herbicidal effect, C: oval-leafed pondweed [4]	herbicidal effect on H: barnyard grass (evaluation grade 0-5) [5]	herbicidal effect on Chinese sprangletop (D) [7]	Herbicidal effect by soil treatment, N: redroot pigweed [8]	Herbicidal effect by soil treatment, F: southern crabgrass [9]	herbicidal effect on M: velvetleaf (evaluation grade 0-5) [10]	herbicidal effect on F: southern crabgrass (evaluation grade 0-5) [11]	herbicidal effect on O: lambsquarters (evaluation grade 0-5) [12]	Herbicidal effect by soil treatment, I: wild oat [13]	herbicidal effect on K: Italian ryegrass (evaluation grade 0-5) [14]	herbicidal effect rating, B: Japanese bulrush [15]	Herbicidal effect by soil treatment, J: blackgrass [16]	G: green foxtail, herbicidal effect grade [3]	N: redroot pigweed, herbicidal effect grade [8]	F: southern crabgrass, herbicidal effect grade [9]	I: wild oat, herbicidal effect grade [13]	I (wild oat) herbicidal effect grade ([1]; foliage application)	also measured
COc1ccccc1-c1sc2cc(SC)ccc2c1-c1c(O)c(C)nn(C)c1=O [3-163]	5 (Herbicidal rate of 90% or more (almost completely withered))	3 (Herbicidal rate of 40% or more and less than 70%)	3 (Herbicidal rate of 40% or more and less than 70%)	3 (Herbicidal rate of 40% or more and less than 70%)	5 (Herbicidal rate of 90% or more (almost completely withered))	5 (Herbicidal rate of 90% or more (almost completely withered))	5 (Herbicidal rate of 90% or more (almost completely withered))	4 (Herbicidal rate of 70% or more and less than 90%)	5 (Herbicidal rate of 90% or more (almost completely withered))	5 (Herbicidal rate of 90% or more (almost completely withered))	4 (Herbicidal rate of 70% or more and less than 90%)	0 (Herbicidal rate of 5% or less (almost no effect))	4 (Herbicidal rate of 70% or more and less than 90%)	0 (Herbicidal rate of 5% or less (almost no effect))	3 (Herbicidal rate of 40% or more and less than 70%)	–	–	–	–	–	herbicidal effect on J: blackgrass (evaluation grade 0-5) ([6]; foliage application after 14-day growth, evaluated three weeks after application): 5 (Herbicidal rate of 90% or more (almost completely withered))
CCCC(=O)Oc1c(C)nn(C)c(=O)c1-c1c(-c2ccc(F)cc2OCC)sc2cc(Cl)ccc12 [3-046]	–	5 (Herbicidal rate of 90% or more (almost completely withered))	–	0 (Herbicidal rate of 5% or less (almost no effect))	–	2 (Herbicidal rate of 20% or more and less than 40%)	–	–	–	–	–	–	–	2 (Herbicidal rate of 20% or more and less than 40%)	–	0 (Herbicidal rate of 5% or less (almost no effect))	5 (Herbicidal rate of 90% or more (almost completely withered))	0 (Herbicidal rate of 5% or less (almost no effect))	0 (Herbicidal rate of 5% or less (almost no effect))	–	I: wild oat, herbicidal effect grade [1, 17]: 5 (Herbicidal rate of 90% or more (almost completely withered)); H: barnyard grass, herbicidal effect grade [5, 17]: 5 (Herbicidal rate of 90% or more (almost completely withered)); J: blackgrass, herbicidal effect grade [6, 17]: 4 (Herbicidal rate of 70% or more and less than 90%); M: velvetleaf, herbicidal effect grade [10, 17]: 4 (Herbicidal rate of 70% or more and less than 90%); F: southern crabgrass, herbicidal effect grade [11, 17]: 5 (Herbicidal rate of 90% or more (almost completely withered)); O: lambsquarters, herbicidal effect grade [12, 17]: 3 (Herbicidal rate of 40% or more and less than 70%); K: Italian ryegrass, herbicidal effect grade [14, 17]: 0 (Herbicidal rate of 5% or less (almost no effect))
CCCC(=O)Oc1c(C)nn(C)c(=O)c1-c1c(-c2ccc(C#N)cc2)sc2c(F)cccc12 [4-053]	2 (Herbicidal rate of 20% or more and less than 40%)	4 (Herbicidal rate of 70% or more and less than 90%)	2 (Herbicidal rate of 20% or more and less than 40%)	2 (Herbicidal rate of 20% or more and less than 40%)	2 (Herbicidal rate of 20% or more and less than 40%)	3 (Herbicidal rate of 40% or more and less than 70%)	5 (Herbicidal rate of 90% or more (almost completely withered))	0 (Herbicidal rate of 5% or less (almost no effect))	5 (Herbicidal rate of 90% or more (almost completely withered))	0 (Herbicidal rate of 5% or less (almost no effect))	4 (Herbicidal rate of 70% or more and less than 90%)	0 (Herbicidal rate of 5% or less (almost no effect))	4 (Herbicidal rate of 70% or more and less than 90%)	2 (Herbicidal rate of 20% or more and less than 40%)	0 (Herbicidal rate of 5% or less (almost no effect))	–	–	–	–	–	–
Cc1nn(C)c(=O)c(-c2c(-c3ccc(Cl)cc3)sc3cccc(F)c23)c1O [11-001]	–	–	–	5 (Herbicidal rate of 90% or more (almost completely withered))	–	–	–	–	–	–	–	–	–	–	–	0 (Herbicidal rate of 5% or less (almost no effect))	5 (Herbicidal rate of 90% or more (almost completely withered))	0 (Herbicidal rate of 5% or less (almost no effect))	0 (Herbicidal rate of 5% or less (almost no effect))	0 (Herbicidal rate of 5% or less (almost no effect))	Herbicidal effect on E (rice flat sedge), foliage application [2]: 5 (Herbicidal rate of 90% or more (almost completely withered)); H (barnyard grass) herbicidal effect grade ([5]; foliage application): 0 (Herbicidal rate of 5% or less (almost no effect)); J (blackgrass) herbicidal effect grade ([6]; foliage application): 0 (Herbicidal rate of 5% or less (almost no effect)); Herbicidal effect on D (Chinese sprangletop), foliage application [7]: 3 (Herbicidal rate of 40% or more and less than 70%); M (velvetleaf) herbicidal effect grade ([10]; foliage application): 5 (Herbicidal rate of 90% or more (almost completely withered)); F (southern crabgrass) herbicidal effect grade ([11]; foliage application): 0 (Herbicidal rate of 5% or less (almost no effect)); O (lambsquarters) herbicidal effect grade ([12]; foliage application): 5 (Herbicidal rate of 90% or more (almost completely withered)); K (Italian ryegrass) herbicidal effect grade ([14]; foliage application): 3 (Herbicidal rate of 40% or more and less than 70%); herbicidal effect grade, B: Japanese bulrush [15]: 3 (Herbicidal rate of 40% or more and less than 70%)
CSc1ccc(-c2oc3ccc(C)cc3c2-c2c(O)c(C)nn(C)c2=O)cc1 [9-055]	–	–	–	4 (Herbicidal rate of 70% or more and less than 90%)	–	–	–	–	–	–	–	–	–	–	–	4 (Herbicidal rate of 70% or more and less than 90%)	5 (Herbicidal rate of 90% or more (almost completely withered))	0 (Herbicidal rate of 5% or less (almost no effect))	0 (Herbicidal rate of 5% or less (almost no effect))	0 (Herbicidal rate of 5% or less (almost no effect))	Herbicidal effect on E (rice flat sedge), foliage application [2]: 5 (Herbicidal rate of 90% or more (almost completely withered)); H (barnyard grass) herbicidal effect grade ([5]; foliage application): 4 (Herbicidal rate of 70% or more and less than 90%); J (blackgrass) herbicidal effect grade ([6]; foliage application): 5 (Herbicidal rate of 90% or more (almost completely withered)); Herbicidal effect on D (Chinese sprangletop), foliage application [7]: 5 (Herbicidal rate of 90% or more (almost completely withered)); M (velvetleaf) herbicidal effect grade ([10]; foliage application): 5 (Herbicidal rate of 90% or more (almost completely withered)); F (southern crabgrass) herbicidal effect grade ([11]; foliage application): 4 (Herbicidal rate of 70% or more and less than 90%); O (lambsquarters) herbicidal effect grade ([12]; foliage application): 5 (Herbicidal rate of 90% or more (almost completely withered)); K (Italian ryegrass) herbicidal effect grade ([14]; foliage application): 5 (Herbicidal rate of 90% or more (almost completely withered)); herbicidal effect grade, B: Japanese bulrush [15]: 3 (Herbicidal rate of 40% or more and less than 70%)
